From US11072588B2, “Barbituric acid derivatives comprising cationic and lipophilic groups” (UNIVERSITETET I TROMSØ—NORGES ARKTISKE UNIVERSITET, priority 2017, dated 2021)
In brackets after ≈: the same amount, converted by molar mass.

Tests used:
E. coli 50857972 = assay: MIC, multi-resistant clinical isolate; format: cell-based, Escherichia coli; details: for MIC: Escherichia coli, read-out: Antimicrobial activity (MIC); for selectivity index (EC50/MIC): RBC EC50 / MIC
Procedure: (§1) Working solutions of the test derivatives were prepared with up to 100% DMSO and stored at −20° C. If necessary, the solutions were heated to 40-80° C. before testing to facilitate complete dissolution. Double-distilled water was used in all dilutions prepared. […] A microdilution susceptibility test was used for MIC determination according to Clinical and Laboratory Standards Institute, “Methods for Dilution Antimicrobial Sisceptibility Tests for Bacteria That Graw Aerobically”, Approved Standard M07-A9, edition 2012, with modifications as described by Igumnova et al (Bioorg Med Chem, 2016, 24 (22), 5884-5894).
(§2) Briefly, the bacterial inoculum was adjusted to approximately 2.5-3×10^4 cells/mL in Mueller-Hinton broth (MHB, Difco Laboratories, USA), and incubated in a ratio of 1:1 with test derivatives in polystyrene 96-well flat-bottom microplates (NUNC, Roskilde, Denmark). Positive growth control (without test derivatives) and negative control (without bacteria) were included. The reference antibiotic was oxytetracycline hydrochloride (Sigma Aldrich, Saint Louis, Mo., USA). The microplates were incubated in an EnVision microplate reader (Perkin-Elmer, Turku, Finland) placed in an incubator set to 35° C. for 48 h. The MIC value was defined as the lowest concentration of derivative resulting in no bacterial growth as determined by OD600 measurement. All derivatives were tested in three parallels.
(§3) The MIC was determined as explained above with some exceptions; working solutions of test derivatives were prepared from concentrated DMSO stocks stored at room temperature, the density of the bacterial inoculum was increased 40× to 1-1.2×10^6 cells/mL, enterococci were incubated in Brain Heart Infusion broth (BHIB, Difco Laboratories, USA), the microplates were incubated for 24 h, and the derivatives were tested in four parallels.

E. coli 50739822 = assay: MIC, multi-resistant clinical isolate; format: cell-based, Escherichia coli; details: for MIC: Escherichia coli, read-out: Antimicrobial activity (MIC); for selectivity index (EC50/MIC): RBC EC50 / MIC
Procedure: as §1, §2, §3

E. coli 50579417 = assay: MIC, multi-resistant clinical isolate; format: cell-based, Escherichia coli; details: for MIC: Escherichia coli, read-out: Antimicrobial activity (MIC); for selectivity index (EC50/MIC): RBC EC50 / MIC
Procedure: as §1, §2, §3

E. coli 50639799 = assay: MIC, multi-resistant clinical isolate; format: cell-based, Escherichia coli; details: for MIC: Escherichia coli, read-out: Antimicrobial activity (MIC); for selectivity index (EC50/MIC): RBC EC50 / MIC
Procedure: as §1, §2, §3

E. coli 50676002 = assay: MIC, multi-resistant clinical isolate; format: cell-based, Escherichia coli; details: for MIC: Escherichia coli, 50676002, read-out: Antimicrobial activity (MIC); for selectivity index (EC50/MIC): RBC EC50 / MIC, E. coli 50676002
Procedure: as §1, §2, §3

P. aeruginosa K34-73 = assay: MIC, multi-resistant clinical isolate; format: cell-based, Pseudomonas aeruginosa; details: for MIC: Pseudomonas aeruginosa, K3473, read-out: Antimicrobial activity (MIC); for selectivity index (EC50/MIC): RBC EC50 / MIC, P. aeruginosa K34-73
Procedure: as §1, §2, §3

P. aeruginosa 50692520 = assay: MIC, multi-resistant clinical isolate; format: cell-based, Pseudomonas aeruginosa; details: for MIC: Pseudomonas aeruginosa, read-out: Antimicrobial activity (MIC); for selectivity index (EC50/MIC): RBC EC50 / MIC
Procedure: as §1, §2, §3

P. aeruginosa 50692172 = assay: MIC, multi-resistant clinical isolate; format: cell-based, Pseudomonas aeruginosa; details: for MIC: Pseudomonas aeruginosa, read-out: Antimicrobial activity (MIC); for selectivity index (EC50/MIC): RBC EC50 / MIC
Procedure: as §1, §2, §3

P. aeruginosa K34-7 = assay: MIC, multi-resistant clinical isolate; format: cell-based, Pseudomonas aeruginosa; details: for MIC: Pseudomonas aeruginosa, K347, read-out: Antimicrobial activity (MIC); for selectivity index (EC50/MIC): RBC EC50 / MIC, P. aeruginosa K34-7
Procedure: as §1, §2, §3

P. aeruginosa K44-24 = assay: MIC, multi-resistant clinical isolate; format: cell-based, Pseudomonas aeruginosa; details: for MIC: Pseudomonas aeruginosa, K4424, read-out: Antimicrobial activity (MIC); for selectivity index (EC50/MIC): RBC EC50 / MIC
Procedure: as §1, §2, §3

A. baumanii K12-21 = assay: MIC, multi-resistant clinical isolate; format: cell-based, Acinetobacter baumannii; details: for MIC: Acinetobacter baumannii, K1221, read-out: Antimicrobial activity (MIC); for selectivity index (EC50/MIC): RBC EC50 / MIC
Procedure: as §1, §2, §3

A. baumanii K44-35 = assay: MIC, multi-resistant clinical isolate; format: cell-based, Acinetobacter baumannii; details: for MIC: Acinetobacter baumannii, K4435, read-out: Antimicrobial activity (MIC); for selectivity index (EC50/MIC): RBC EC50 / MIC
Procedure: as §1, §2, §3

A. baumanii K47-42 = assay: MIC, multi-resistant clinical isolate; format: cell-based, Acinetobacter baumannii; details: for MIC: Acinetobacter baumannii, K4742, read-out: Antimicrobial activity (MIC); for selectivity index (EC50/MIC): RBC EC50 / MIC
Procedure: as §1, §2, §3

A. baumanii K55-13 = assay: MIC, multi-resistant clinical isolate; format: cell-based, Acinetobacter baumannii; details: for MIC: Acinetobacter baumannii, K5513, read-out: Antimicrobial activity (MIC); for selectivity index (EC50/MIC): RBC EC50 / MIC
Procedure: as §1, §2, §3

A. baumanii K63-58 = assay: MIC, multi-resistant clinical isolate; format: cell-based, Acinetobacter baumannii; details: A. baumanii K63-58, resistant to colistin; for MIC: Acinetobacter baumannii, K6358, 24 h, read-out: Antimicrobial activity (MIC); for selectivity index (EC50/MIC): RBC EC50 / MIC
Procedure: as §1, §2, §3

S. aureus IHT 99040 = assay: MIC, multi-resistant clinical isolate; format: cell-based, Staphylococcus aureus; details: for selectivity index (EC50/MIC): RBC EC50 / MIC; for MIC: Staphylococcus aureus, IHT99040, read-out: Antimicrobial activity (MIC)
Procedure: as §1, §2, §3

[1] = Determination of haemolytic activity; format: cell-based; details: human red blood cells (washed, from heparinized fresh blood); human RBCs, 1 h, 37° C.; read-out: RBC: haemolytic activity against human RBCs (EC50)
Procedure: Hemolysis was determined using a heparinized fraction (1000 IU/mL) of freshly drawn blood. Blood collected in EDTA containing test tubes (Vacutest®, KIMA, Arzergrande, Italy) was used for determination of the hematocrit (hct). The heparinized blood was washed 3× with pre-warmed PBS and adjusted to a final hct of 4%. Derivatives in DMSO (50 mM) were added to a 96-well polypropylene V-bottom plate (NUNC, Fisher Scientific, Oslo, Norway) and serially diluted. The test concentration range was 500-4 μM with DMSO contents ≤1%. A solution of 1% triton X-100 was used as positive control for 100% hemolysis. As negative control a solution of 1% DMSO in PBS buffer was included. No signs of DMSO toxicity were detected. RBCs (1% v/v final concentration) were added to the well plate and incubated at 37° C. and 800 rpm for 1 h. After centrifugation (5 min, 3000 g), 100 μL of each well were transferred to a 96-well flat bottom plate and absorbance was measured at 545 nm with a microplate reader (VersaMax™, Molecular Devices, Sunnyvale, Calif., USA). The percentage of hemolysis was calculated as the ratio of the absorbance in the derivative-treated and surfactant treated samples, corrected for the PBS background. Three independent experiments were performed and EC50 values are presented as averages.

SMILES | MIC (E. coli 50857972) | selectivity index (EC50/MIC) (E. coli 50857972) | MIC (E. coli 50739822) | selectivity index (EC50/MIC) (E. coli 50739822) | MIC (E. coli 50579417) | selectivity index (EC50/MIC) (E. coli 50579417) | MIC (E. coli 50639799) | selectivity index (EC50/MIC) (E. coli 50639799) | MIC (E. coli 50676002) | selectivity index (EC50/MIC) (E. coli 50676002) | MIC (P. aeruginosa K34-73) | selectivity index (EC50/MIC) (P. aeruginosa K34-73) | MIC (P. aeruginosa 50692520) | selectivity index (EC50/MIC) (P. aeruginosa 50692520) | MIC (P. aeruginosa 50692172) | selectivity index (EC50/MIC) (P. aeruginosa 50692172) | MIC (P. aeruginosa K34-7) | selectivity index (EC50/MIC) (P. aeruginosa K34-7) | MIC (P. aeruginosa K44-24) | MIC (A. baumanii K12-21) | other results
NCCCCN1C(=O)N(CCCCN)C(=O)C(Cc2cc(Br)cc(Br)c2)(Cc2cc(Br)cc(Br)c2)C1=O [7(ii)] | 8 µg/mL (≈ 10.4 µM) | (10) | 8 µg/mL (≈ 10.4 µM) | (10) | 8 µg/mL (≈ 10.4 µM) | (10) | 8 µg/mL (≈ 10.4 µM) | (10) | 8 µg/mL (≈ 10.4 µM) | (10) | 16 µg/mL (≈ 20.9 µM) | (5) | 16 µg/mL (≈ 20.9 µM) | (5) | 16 µg/mL (≈ 20.9 µM) | (5) | 16 µg/mL (≈ 20.9 µM) | (5) | 16 µg/mL (≈ 20.9 µM) | 16 µg/mL (≈ 20.9 µM) | selectivity index (EC50/MIC) (P. aeruginosa K44-24): (5); selectivity index (EC50/MIC) (A. baumanii K12-21): (5); MIC (A. baumanii K44-35): 16 µg/mL (≈ 20.9 µM); selectivity index (EC50/MIC) (A. baumanii K44-35): (5); MIC (A. baumanii K47-42): 16 µg/mL (≈ 20.9 µM); selectivity index (EC50/MIC) (A. baumanii K47-42): (5); MIC (A. baumanii K55-13): 16 µg/mL (≈ 20.9 µM); selectivity index (EC50/MIC) (A. baumanii K55-13): (5); MIC (A. baumanii K63-58): 16 µg/mL (≈ 20.9 µM); selectivity index (EC50/MIC) (A. baumanii K63-58): (5); selectivity index (EC50/MIC) (S. aureus IHT 99040): (21); MIC (S. aureus IHT 99040): 4 µg/mL (≈ 5.22 µM); EC50 at 1 h [1]: 83 µg/mL (≈ 108 µM)
CC(C)(C)c1cc(CC2(Cc3cc(C(C)(C)C)cc(C(C)(C)C)c3)C(=O)N(CCCCN)C(=O)N(CCCCN)C2=O)cc(C(C)(C)C)c1 [7(iii), 1,3-bis(4-aminobutyl)-5,5-bis(3,5-di-tert-butylbenzyl)-pyrimidin-2,4,6(1H,3H,5H)-trione] | 4 µg/mL (≈ 5.93 µM) | (<1) | 4 µg/mL (≈ 5.93 µM) | (<1) | 4 µg/mL (≈ 5.93 µM) | (<1) | 4 µg/mL (≈ 5.93 µM) | (<1) | 8 µg/mL (≈ 11.9 µM) | (<0.5 | 16 µg/mL (≈ 23.7 µM) | (<2.5) | 8 µg/mL (≈ 11.9 µM) | (<0.5) | 8 µg/mL (≈ 11.9 µM) | (<0.5) | 8 µg/mL (≈ 11.9 µM) | (<0.5) | 8 µg/mL (≈ 11.9 µM) | 4 µg/mL (≈ 5.93 µM) | selectivity index (EC50/MIC) (P. aeruginosa K44-24): (<0.5); selectivity index (EC50/MIC) (A. baumanii K12-21): (<1); MIC (A. baumanii K44-35): 4 µg/mL (≈ 5.93 µM); selectivity index (EC50/MIC) (A. baumanii K44-35): (<1); MIC (A. baumanii K47-42): 4 µg/mL (≈ 5.93 µM); selectivity index (EC50/MIC) (A. baumanii K47-42): (<1); MIC (A. baumanii K55-13): 4 µg/mL (≈ 5.93 µM); selectivity index (EC50/MIC) (A. baumanii K55-13): (<1); MIC (A. baumanii K63-58): 4 µg/mL (≈ 5.93 µM); selectivity index (EC50/MIC) (A. baumanii K63-58): (<1); selectivity index (EC50/MIC) (S. aureus IHT 99040): (<2); MIC (S. aureus IHT 99040): 2 µg/mL (≈ 2.96 µM); EC50 at 1 h [1]: < 4 µg/mL
NCCCCN1C(=O)N(CCCCN)C(=O)C(Cc2ccc3ccccc3c2)(Cc2ccc3ccccc3c2)C1=O [7(iv), 1,3-bis(4-aminobutyl)-5,5-bis(naphtalen-2-yl-methyl)-pyrimidin-2,4,6(1H,3H,5H)-trione] | 16 µg/mL (≈ 29.1 µM) | (15) | 16 µg/mL (≈ 29.1 µM) | (15) | 16 µg/mL (≈ 29.1 µM) | (15) | 16 µg/mL (≈ 29.1 µM) | (15) | 16 µg/mL (≈ 29.1 µM) | (15) | 32 µg/mL (≈ 58.1 µM) | (8) | 32 µg/mL (≈ 58.1 µM) | (8) | 32 µg/mL (≈ 58.1 µM) | (8) | 32 µg/mL (≈ 58.1 µM) | (8) | > 32 µg/mL | 32 µg/mL (≈ 58.1 µM) | selectivity index (EC50/MIC) (A. baumanii K12-21): (8); MIC (A. baumanii K44-35): 32 µg/mL (≈ 58.1 µM); selectivity index (EC50/MIC) (A. baumanii K44-35): (8); MIC (A. baumanii K47-42): 32 µg/mL (≈ 58.1 µM); selectivity index (EC50/MIC) (A. baumanii K47-42): (8); MIC (A. baumanii K55-13): 32 µg/mL (≈ 58.1 µM); selectivity index (EC50/MIC) (A. baumanii K55-13): (8); MIC (A. baumanii K63-58): 16 µg/mL (≈ 29.1 µM); selectivity index (EC50/MIC) (A. baumanii K63-58): (15); selectivity index (EC50/MIC) (S. aureus IHT 99040): (30); MIC (S. aureus IHT 99040): 8 µg/mL (≈ 14.5 µM); EC50 at 1 h [1]: 243 µg/mL (≈ 441 µM)
